Laboratory results from patent US7601702B2, “Dutpase Inhibitors” (Medivir AB, priority 2004, dated 2009).
In brackets after ≈: the same amount, converted by molar mass.

What was measured:
Assay type in all cases: cell-based
[1] = tested on: Leishmania donovani strain MHOM/ET/67/L82; assay: Leishmania donovani axenic amastigote assay; conditions: axenic amastigotes
[2] = tested on: Leishmania donovani strain MHOM/ET/67/L82; assay: Leishmaniasis macrophage in vitro screening model; conditions: amastigotes in murine macrophages, n=4
Procedure: The Leishmania donovani strain MHOM/ET/67/L82 obtained from Dr. S. Croft, London) is used. The strain is maintained in the Syrian Golden hamster. Amastigotes are collected from the spleen of an infected hamster Amastigotes are grown in axenic culture at 37° C. in SM medium (Cunningham I., J. […] Primary peritoneal macrophages from NMRI mice are collected 1 day after a macrophage production stimulation with an i.p injection of 2 ml of a 2% potato starch suspension (FLUKA, Switzerland) All cultures and assays are done at 37° C. under an atmosphere of 5% CO2 in air. […] After use the stocks are kept at -20° C. For the assays, the compound is further diluted in serum-free culture medium and finally to the appropriate concentration in complete medium. Assays are performed in sterile 16-well chamber slides (LabTek, Nalgene/Nunc Int.) To each well 100 μl of a murine macrophage suspension (4×10^5/ml) in RPMI 1640 (containing bicarbonate and HEPES) supplemented with 10% heat inactivated fetal bovine serum is added. […] Infected and non-infected macrophages are counted for the control cultures and the ones exposed to the serial drug dilutions. The infection rates are determined. The results are expressed as % reduction in parasite burden compared to control wells, and the IC50 calculated by linear regression analysis. […]

[3] = tested on: Trypanosoma brucei gambiense STIB 930; assay: Trypanosoma brucei whole cell assay, secondary screen STIB 930
Procedure: The bloodstream form trypomastigotes of strain b are maintained in MEM medium with Earle's salts supplemented with 25 mM HEPES, 1 g/l additional glucose, 1% MEM non-essential aminoacids (100×), 0.2 mM 2-mercaptoethanol, 2 mM Na-pyruvate, 0.1 mM hypoxanthine, 0.05 mM bathocuproine disulphonic acid, 0.15 mM L-cysteine and 15% heat inactivated pooled human serum.
Assays are performed in 96-well microtiter plates, each well containing 100 μl of culture medium with 8×10^3 bloodstream forms with or without a serial drug dilution. The highest concentration for the test compounds is 90 μg/ml. Seven 3-fold dilutions are used covering a range from 90 μg/ml to 0.123 μg/ml. […]

[4] = tested on: Trypanosoma brucei rhodesiense STIB 900; assay: Trypanosoma brucei whole cell assay, primary screen; conditions: read-out: ICo
Procedure: The bloodstream form trypomastigotes of the strains a and c are maintained in MEM medium with Earle's salts supplemented with 25 mM HEPES, 1 g/l additional glucose, 1% MEM nonessential amino acids (100×), 0.2 mM 2-mercaptoethanol, 2 mM Na-pyruvate, 0.1 mM hypoxanthine and 15% heat inactivated horse serum.
All cultures and assays are conducted at 37° C. under an atmosphere of 5% CO2 in air.
After use the stocks are kept at −20° C. For the assays, the compound is further diluted to the appropriate concentration using complete medium.
Assays are performed in 96-well microtiter plates, each well containing 100 μl of culture medium with 8×10^3 bloodstream forms with or without a serial drug dilution. The highest concentration for the test compounds is 90 μg/ml. Seven 3-fold dilutions are used covering a range from 90 μg/ml to 0.123 μg/ml. Each drug is tested in duplicate and each assay is repeated at least once. […]
10 μl of Alamar Blue (12.5 mg resazurin dissolved in 100 ml distilled water) are now added to each well and the plates incubated for another 2 hours. Then the plates are read with a Spectramax Gemini XS microplate fluorometer (Molecular Devices Cooperation, Sunnyvale, Calif., USA) using an excitation wave length of 536 nm and an emission wave length of 588 nm. Data are analysed using the microplate reader software Softmax Pro (Molecular Devices Cooperation, Sunnyvale, Calif., USA). […]

[5] = tested on: T. b. brucei STIB 950; assay: Trypanosoma brucei whole cell assay, secondary screen STIB 950; conditions: STIB950

IC50 [1]	IC50 [2]	SMILES	IC50 [3]	IC50 [4]	IC50 [5]
120 ng/mL (≈ 0.294 µM)	325 ng/mL (≈ 0.797 µM)	CCCCCCCCCCCCCCCCOP(=O)([O-])OCC[N+](C)(C)C [Miltefosine]			
		Nc1nc(N)nc(Nc2ccc([As]3SCC(CO)S3)cc2)n1 (centres unmarked) [melarsoprol]	4.2 ng/mL	1.6 ng/mL	2.8 ng/mL
